Assay results published in patent US20240116985A1, “STAPLED PEPTIDES AND METHODS THEREOF” (priority 2020, published 2024).
Where two headings read alike, the source gives them in different places.

How the values were obtained:
[1] = biological target: T1, full-length beta-Catenin (Uniprot ID P35222) (Homo sapiens, UniProt P35222); assay: Fluorescence polarization IC50 (beta-catenin / 5FAM-TCF4 10-53 competition); type: binding
T1 construct: 10 nM full-length beta-Catenin (Uniprot ID P35222)
T1 sequence (P35222 1-781): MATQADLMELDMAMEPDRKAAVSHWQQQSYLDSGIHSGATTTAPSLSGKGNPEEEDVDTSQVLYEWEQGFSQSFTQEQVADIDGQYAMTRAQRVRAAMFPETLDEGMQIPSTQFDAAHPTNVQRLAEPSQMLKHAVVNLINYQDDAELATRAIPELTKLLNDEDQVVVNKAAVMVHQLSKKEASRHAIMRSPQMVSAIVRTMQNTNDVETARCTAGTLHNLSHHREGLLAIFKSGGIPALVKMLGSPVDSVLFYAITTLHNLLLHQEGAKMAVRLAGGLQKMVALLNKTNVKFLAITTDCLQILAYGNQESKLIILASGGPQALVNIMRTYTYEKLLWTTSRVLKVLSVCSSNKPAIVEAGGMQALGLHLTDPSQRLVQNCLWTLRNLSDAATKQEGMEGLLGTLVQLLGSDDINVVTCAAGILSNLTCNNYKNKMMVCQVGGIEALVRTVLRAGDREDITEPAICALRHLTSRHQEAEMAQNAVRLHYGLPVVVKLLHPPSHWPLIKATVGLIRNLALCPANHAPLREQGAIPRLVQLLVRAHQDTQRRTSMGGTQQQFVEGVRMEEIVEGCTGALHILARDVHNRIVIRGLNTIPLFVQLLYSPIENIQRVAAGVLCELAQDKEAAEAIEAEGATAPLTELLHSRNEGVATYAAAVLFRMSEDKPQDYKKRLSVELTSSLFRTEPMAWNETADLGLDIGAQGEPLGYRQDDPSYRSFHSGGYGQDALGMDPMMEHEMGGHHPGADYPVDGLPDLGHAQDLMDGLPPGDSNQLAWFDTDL

CHI Log D procedure = type: physicochemical; conditions: for chromatographic logD: pH 7.4, CHI Log D; for CHI Log D: pH 7.4
[2] = fluorescence polarization, read-out: beta-Catenin FP IC50
[3] = Table E2-1, read-out: beta-Catenin FP IC50
[4] = fluorescence polarization, beta-catenin, read-out: FP EC50

Row | SMILES | IC50 [1, 2] [nM] | chromatographic logD (CHI Log D procedure) | IC50 ([1]; read-out: FP EC50) [nM] | CHI Log D (CHI Log D procedure) | IC50 [1, 3] [nM] | IC50 [1, 4] [nM]
1 | CC(=O)N1CCC[C@]12CC=CCCCC1(CCCC=CCCCCCC[C@@](C)(C(=O)N[C@@H](Cc3cccc(F)c3)C(=O)N[C@@H](Cc3csc4ccccc34)C(=O)N[C@@H](Cc3c[nH]cn3)C(N)=O)NC(=O)[C@H](CCC(N)=O)NC(=O)[C@H](Cc3ccsc3)NC(=O)[C@H](C)NC(=O)[C@H](C)NC(=O)[C@H](CCC(=O)O)NC(=O)[C@H](CC(=O)O)NC1=O)NC(=O)[C@H](C)NC(=O)[C@H](CC(=O)O)NC2=O (stereo partly drawn) [I-430, Ac-PL3-Asp-Ala-B5-Asp-Glu-Ala-Ala-3Thi-Gln-S8-3FF-BztA-His-NH2] | 154 | 2.13 | – | – | – | –
2 | CC(=O)N1CCC[C@]12CC=CCCCC1(CCCC=CCOC(=O)N(C)CCC[C@@](C)(C(=O)N[C@@H](Cc3ccccc3)C(=O)N[C@@H](Cc3c[nH]c4ccccc34)C(=O)N[C@@H](CCC(N)=O)C(N)=O)NC(=O)[C@H](C(C)C)NC(=O)[C@H](Cc3ccccc3)NC(=O)[C@H](C)NC(=O)[C@H](C)NC(=O)[C@H](CC(=O)O)NC(=O)[C@H](CC(=O)O)NC1=O)NC(=O)[C@H](C)NC(=O)[C@H](CC(=O)O)NC2=O (stereo partly drawn) [I-54, Ac-PL3-Asp-Ala-B5-Asp-Asp-Ala-Ala-Phe-Val-SeN-Phe-Trp-Gln-NH2] | – | – | – | 1.469 | 3190 | 3190
3 | CC(=O)N1CCC[C@]12CC=CCCCC1(CCCC=CCCCCCC[C@@](C)(C(=O)N[C@@H](Cc3ccccc3)C(=O)N[C@@H](Cc3csc4ccccc34)C(=O)N[C@@H](CCC(N)=O)C(N)=O)NC(=O)[C@H](C)NC(=O)[C@H](Cc3ccccc3C)NC(=O)[C@H](C)NC(=O)[C@H](C)NC(=O)[C@H](CC(=O)O)NC(=O)[C@H](CC(=O)O)NC1=O)NC(=O)[C@H](C)NC(=O)[C@H](CC(=O)O)NC2=O (stereo partly drawn) [I-366, Ac-PL3-Asp-Ala-B5-Asp-Asp-Ala-Ala-2MeF-Ala-S8-Phe-BztA-Gln-NH2] | – | – | – | 2.084 | 1440 | 1440
4 | CC(=O)N1CCC[C@]12CC=CCCCC1(CCCC=CCCCCCC[C@@](C)(C(=O)N[C@@H](Cc3ccccc3)C(=O)N[C@@H](Cc3ccc4ccccc4c3)C(=O)N[C@@H](CCC(N)=O)C(N)=O)NC(=O)[C@H](C(C)C)NC(=O)[C@H](Cc3ccc(F)c(F)c3)NC(=O)[C@H](C)NC(=O)[C@H](C)NC(=O)[C@H](CCC(=O)O)NC(=O)[C@H](CC(=O)O)NC1=O)NC(=O)[C@H](C)NC(=O)[C@H](CC(=O)O)NC2=O (stereo partly drawn) [I-184, Ac-PL3-Asp-Ala-B5-Asp-Glu-Ala-Ala-34FF-Val-S8-Phe-2NapA-Gln-NH2] | – | 2.27 | – | – | 3110 | –

Next, values leading:

Row | IC50 [1, 2] [nM] | chromatographic logD (CHI Log D procedure) | IC50 ([1]; read-out: FP EC50) [nM] | CHI Log D (CHI Log D procedure) | IC50 [1, 3] [nM] | IC50 [1, 4] [nM] | SMILES
5 | 112 | – | 112 | 2.458 | – | – | CC[C@H](C)[C@@H]1NC(=O)[C@H](CC(=O)O)NC(=O)[C@]2(CC=CCCCC3(CCCC=CCCCCCC[C@@](C)(C(=O)N[C@@H](Cc4ccccc4)C(=O)N[C@@H](Cc4csc5ccccc45)C(=O)N[C@@H](Cc4c[nH]cn4)C(N)=O)NC(=O)[C@H](CCC(N)=O)NC(=O)[C@H](Cc4ccccc4)NC(=O)[C@H](C)NC(=O)[C@H](C)NC(=O)[C@H](CC(=O)O)NC(=O)[C@H](CC(=O)O)NC3=O)NC1=O)CCCN2C(C)=O (stereo partly drawn) [I-581, Ac-PL3-Asp-Ile-B5-Asp-Asp-Ala-Ala-Phe-Gln-S8-Phe-BztA-His-NH2]
6 | 54 | – | 54 | 2.459 | – | – | CC(=O)N1CCC[C@]12CC=CCCCC1(CCCC=CCCCCCC[C@@](C)(C(=O)N[C@@H](Cc3ccccc3)C(=O)N[C@@H](Cc3csc4ccccc34)C(=O)N[C@H](C(N)=O)[C@@H](C)O)NC(=O)[C@H](CC(N)=O)NC(=O)[C@H](Cc3ccccc3)NC(=O)[C@H](C)NC(=O)[C@H](C)NC(=O)[C@H](CCC(=O)O)NC(=O)[C@H](CC(=O)O)NC1=O)NC(=O)[C@H](CC(C)C)NC(=O)[C@H](CC(=O)O)NC2=O (stereo partly drawn) [I-748, Ac-PL3-Asp-Leu-B5-Asp-Glu-Ala-Ala-Phe-Asn-S8-Phe-BztA-Thr-NH2]
